Key:
SERCA2a = SERCA2a SUMOylation assay in HEK-293 cells (immunoprecipitation/immunoblotting); assay type: cell-based
Description: The following antibodies were used for immunoblotting and immunoprecipitation (IP): polyclonal anti-SERCA2a (21th century Biochem Inc.), monoclonal anti-GAPDH (Sigma-Aldrich, catalog no. G8795), monoclonal anti-SUMO 1 (Cell Signaling Technology Inc., catalog no. 4930), anti-mouse horseradish peroxidase (HRP) (Pierce Biotechnology Inc., catalog no. 32430), and anti-rabbit HRP (Pierce Biotechnology Inc., catalog no. 32460). YFP-tagged SUMO1, pcDNA3.0-SERCA2a, and HA-tagged Ubc9 plasmids were used for the transfection. The plasmid DNA was amplified in the Escherichia coli strain DH5a and extracted by using a commercial purification kit (Qiagen, catalog no. 12263). Purified plasmid was resuspended in sterile TE buffer (10 mM Tris-HCl and 1 mM EDTA, pH 7.6). Only the preparation highest purity (A260/A280>1.8) was used for transfection. 1 μg of each plasmid was used for transfection. HEK-293 cells (American Type Culture Collection, catalog no. CRL-1873) were grown at 37° C. and under a 5% CO2 humidified atmosphere in Dulbecco's modified Eagle's medium (DMEM, Cellgro, catalog no. 10-0 13-CM) containing 10% fetal bovine serum (SAFC Bioscience, catalog no. 12107) and 100 i.u of penicillin/ml and 100 μg of streptomycin/ml. HEK-293 cells were seeded at a density of 3-5×10^5 cells per 60 mm culture dish in DMEM. The cells were transiently transfected using Lipofectamine 2000 (Invitrogen, catalog no. 11668) with indicated expression plasmids. After 24 hours, the cells were treated with either small molecules or dimethyl sulfoxide (DMSO, Sigma-Aldrich, catalog no. D2650).
Each compound was added at 10 μM. DMSO was used as a control. After 24 hours at 37° C., SERCA2a SUMOylation and functional analysis were determined.
Equal amounts of protein from either small molecule treated or DMSO treated cells or immunoprecipitates were resolved by 7.5% SDS-PAGE and transferred to nitrocellulose membranes (Bio-Rad, catalog no. 162-0112). The membranes were blocked for 1 hour at room temperature with 5% non-fat milk (Cell Signaling Technology Inc., catalog no. 9999) in TBST (10 mM Tris-HCl, 150 mM NaCl, and 0.05% tween-20, pH 8.0). The blots were incubated with specific primary antibodies at 4° C. for overnight. The blots were then washed five times for 10 minutes each with TBST and incubated for 1 hour with HRP-conjugated secondary antibodies in TBST with 5% non-fat milk. After five times TBST washes, the protein bands were visualized with enhanced chemiluminescence (Pierce Biotechnology Inc., catalog no. 32132) and exposed to x-ray film (Denville Scientific Inc., catalog no. E3012). GAPDH expression provided an internal control.
Post-transfection (48 hours), the HEK-293 cells were rinsed twice with phosphate-buffered saline (PBS, Cellgro, catalog no. 21-040-CM) and lysed in 1% Nonidet P-40 lysis buffer (Boston Bioproducts, catalog no. BP-119) with 10 mM N-ethylmaleimide (NEM, Sigma-Aldrich, catalog no. N3876) and […] inhibitor cocktail (Complete Mini Tablet, Roche Applied Science, catalog no. 11836153001). 2 mg of protein were mixed with the anti-SERCA2a antibodies for overnight at 4° C. in lysis buffer. Pre-washed protein A-Separose beads (Pierce Biotechnology Inc., catalog no. 20333) was added to each sample and incubated 1 hour at 4° C. with gentle rocking. Immunocomplexes were washed with lysis buffer three times and precipitated by centrifugation at 12000×g for 10 seconds. The immunocomplexes were resuspended in SDS sample buffer and subjected to immunoblotting. Controls for the immunoprecipitations were performed using an anti-rabbit IgG equal to that of the primary precipitating antibody. Ten percent of whole cell lysates used in the immunoprecipitation was loaded for subsequent immunoblotting.
The ability of the Example compound to SUMOylate SERCA2a was examined using an in vitro system in HEK 293 cells where both SERCA2a and SUMO 1 are expressed. […]

SUMO E1 enzyme [1] = target: T1, SUMO E1 enzyme (Homo sapiens, UniProt Q9UBT2); assay: ATP-dependent activation of SUMO-1 (ATP hydrolysis); assay type: biochemical
T1 sequence (Q9UBT2 1-640): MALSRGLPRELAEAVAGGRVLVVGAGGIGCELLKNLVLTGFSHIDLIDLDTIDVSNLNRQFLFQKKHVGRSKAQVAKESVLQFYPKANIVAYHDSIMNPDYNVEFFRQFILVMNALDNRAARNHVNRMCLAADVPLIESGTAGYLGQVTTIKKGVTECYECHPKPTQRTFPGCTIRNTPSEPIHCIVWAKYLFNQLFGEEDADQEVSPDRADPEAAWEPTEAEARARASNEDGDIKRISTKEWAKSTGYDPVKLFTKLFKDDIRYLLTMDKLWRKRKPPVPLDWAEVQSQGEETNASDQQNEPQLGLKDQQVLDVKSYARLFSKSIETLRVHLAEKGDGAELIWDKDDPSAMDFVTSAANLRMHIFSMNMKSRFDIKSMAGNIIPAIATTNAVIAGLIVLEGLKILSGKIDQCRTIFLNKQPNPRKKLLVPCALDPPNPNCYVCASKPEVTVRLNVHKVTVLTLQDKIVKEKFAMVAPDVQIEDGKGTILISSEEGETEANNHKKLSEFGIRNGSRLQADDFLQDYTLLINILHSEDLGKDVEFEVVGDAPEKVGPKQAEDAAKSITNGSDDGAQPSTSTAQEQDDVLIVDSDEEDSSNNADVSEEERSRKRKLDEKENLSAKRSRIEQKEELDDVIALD
T1 sequence (Q9UBE0 1-346): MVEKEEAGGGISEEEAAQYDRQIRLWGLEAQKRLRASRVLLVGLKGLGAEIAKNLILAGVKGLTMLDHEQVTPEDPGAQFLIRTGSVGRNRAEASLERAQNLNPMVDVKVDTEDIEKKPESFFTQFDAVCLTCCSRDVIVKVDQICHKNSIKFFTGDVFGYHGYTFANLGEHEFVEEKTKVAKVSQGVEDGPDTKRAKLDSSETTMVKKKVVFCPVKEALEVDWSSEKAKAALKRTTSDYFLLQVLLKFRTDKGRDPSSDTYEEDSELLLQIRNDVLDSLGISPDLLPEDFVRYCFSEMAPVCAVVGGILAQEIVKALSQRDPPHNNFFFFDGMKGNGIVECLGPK

SUMO E1 enzyme [2] = target: T1, SUMO E1 enzyme; assay: Thioester formation between SUMO-1 and SUMO E1 enzyme (gel-based assay); assay type: biochemical
SUMO E2 enzyme, UBC9 = assay: Transfer of activated SUMO-1 from SUMO E1 to SUMO E2 enzyme UBC9 (gel-based assay); assay type: biochemical

EC50 (SUMO E1 enzyme [1]): 40.5 ± 4.4 µM
EC50 (SUMO E1 enzyme [2]): 1.85 ± 0.96 µM
EC50 (SUMO E2 enzyme, UBC9): 10.2 ± 0.28 µM
Structure (SMILES): COc1ccc(-c2nnc(Nc3nc4c(OC)cccc4s3)o2)cc1 [Example 1, N-(4-methoxybenzo[d]thiazol-2-yl)-5-(4-methoxyphenyl)-1,3,4-oxadiazol-2-amine]
SERCA2a SUMOylation in HEK 293 cells (SERCA2a): increases SUMOylation of SERCA2a in a dose dependent manner
